Data on 1 compound can be found in patent US12606552B2, “Bifunctional compound, preparation method therefor, and use thereof” (SUZHOU KINTOR PHARMACEUTICALS, INC., priority 2020, dated 2026).

The test system of this experiment is androgenetic alopecia model in C57BL/6J mice. Kind of experiment: Hair regeneration effects on androgenic alopecia C57 mouse model (DHT-induced). Conditions: AVER n = 6, score 0-5. Type of experiment: in vivo, C57BL/6N mice. The text has this:
Activity Assay Example 8: Hair Regeneration Effects of Compounds on Androgenic Alopecia C57 Mouse Model
The purpose of this study was to compare the effect of the compounds prepared by the present invention as AR protein degraders on hair regrowth in an androgenetic alopecia model in C57BL/6J mice by transdermal application route of administration, and to provide data to support subsequent clinical trials.
2. Experimental Principle
Name of test compound I: dihydrotestosterone DHT; name of test compound II: compound A46 of the present invention; name of test compound III: minoxidil.
4. Experimental animals: strain: C57BL/6N mice; age: 6-7 weeks; gender: male; number of animals: 70 (10 for later use); rearing environment: specific pathogen-free (SPF).
70 mice were deeply anesthetized, and the hair on the back of the mice was removed with an animal shaver, then the depilatory cream (Veet https://item.jd.com/6291245.html) was smeared evenly on the surface of the mice skin, and left 7-10 minutes. Then the hair was gently scraped off with a hair removal scraper against the direction of the hair, and finally the residual hair removal cream on the skin surface was fully washed with water to avoid burning the mice skin.
This experiment was divided into 6 groups, and the DHT administration started on the day of hair removal, A46 is administered on day 2 after hair removal and is counted as day 1 (the day of hair removal is counted as day 0).
5.3 Test Compound Preparation Method
5.4 Observation and Measurement Indicators • 1) Body weight/g: From the first day of administration, body weight was weighed and recorded twice a week. • 2) Hair regeneration (anagen) score (0 points: no darkening of skin color in all areas; 1 point: darkening of gray skin color areas; 2 points: visible short hair; 3 points: thin hair; 4 points: thick hair; 5 points: full hair growth).
All mice were photographed on day 1 after hair removal, and then photographed and scored daily from day 4 until the end of the experiment. • 3) At the end of the experiment, skin and blood collection operations were performed as needed. 5.5 Criteria for Drug Withdrawal and Experiment Termination
Data are presented as average±standard error (AVE±SEM). One-way multi-level analysis of variance was used for statistics. The comparison between each drug group and the model group was performed by Stundent's t-test or rank sum test, and the p value was calculated. p<0.05 means there is a significant difference between the two groups, p<0.01 means there is a extremely significant difference between the two groups.

Take `Cc1ncsc1-c1ccc(CNC(=O)[C@@H]2C[C@@H](O)CN2C(=O)[C@@H](NC(=O)COCCCCOc2ccc(-c3ccc(N4C(=S)N(c5ccc(C#N)c(C(F)(F)F)c5F)C(=O)C4(C)C)cn3)cc2)C(C)(C)C)cc1` [Compound A46]: the Hair regeneration score (0.5% skin smear BID + DHT 30 mpk, 0 day) is 0.00; the Hair regeneration score (0.5% skin smear BID + DHT 30 mpk, 3 days) worked out at 0.00; the Hair regeneration score (0.5% skin smear BID + DHT 30 mpk, 5 days) is recorded as 0.00; the Hair regeneration score (0.5% skin smear BID + DHT 30 mpk, 7 days) came to 0.00; the Hair regeneration score (0.5% skin smear BID + DHT 30 mpk, 10 days) worked out at 0.33; the Hair regeneration score (0.5% skin smear BID + DHT 30 mpk, 12 days) amounted to 0.50. Moreover, the Hair regeneration score turned out to be 1.00 (0.5% skin smear BID + DHT 30 mpk, 14 days); 1.67 (0.5% skin smear BID + DHT 30 mpk, 17 days); 0.00 (1% skin smear BID + DHT 30 mpk, 0 day); 0.00 (1% skin smear BID + DHT 30 mpk, 3 days); 0.00 (1% skin smear BID + DHT 30 mpk, 5 days); 0.00 (1% skin smear BID + DHT 30 mpk, 7 days). For the same compound, the Hair regeneration score (1% skin smear BID + DHT 30 mpk, 10 days) was found to be 0.33; the Hair regeneration score (1% skin smear BID + DHT 30 mpk, 12 days) was 0.83; the Hair regeneration score (1% skin smear BID + DHT 30 mpk, 14 days) worked out at 1.50; the Hair regeneration score (1% skin smear BID + DHT 30 mpk, 17 days) is listed as 2.00; the Hair regeneration score (3% skin smear BID + DHT 30 mpk, 0 day) was found to be 0.00; the Hair regeneration score (3% skin smear BID + DHT 30 mpk, 3 days) was 0.00. Moreover, the Hair regeneration score worked out at 0.00 (3% skin smear BID + DHT 30 mpk, 5 days); 0.00 (3% skin smear BID + DHT 30 mpk, 7 days); 0.50 (3% skin smear BID + DHT 30 mpk, 10 days); 1.17 (3% skin smear BID + DHT 30 mpk, 12 days); 1.83 (3% skin smear BID + DHT 30 mpk, 14 days); 2.83 (3% skin smear BID + DHT 30 mpk, 17 days).
